# Assays:
# Format in all cases: in vivo
# Conditions in all cases: 250 g/h, evaluated after 13 days
# [1] = test system: Alopecurus myosuroides (ALOMY); assay: Pre-emergence herbicidal glasshouse test, percentage damage
# How it was run: (§1)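 Spray: 250 g/h, aqueous acetone/water 50:50 + 0.5% Tween 20; pre-em 1 d after sowing, post-em at 8 d. Glasshouse 24/16 °C, 14 h light, 65% RH, watered twice daily. Read % damage at 13 d, scored 1–5 (5=80-100%).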
# [2] = test system: Avena fatua (AVEFA); assay: as above
# How it was run: as §1
# [3] = test system: Echinochloa crus-galli (ECHCG); assay: as above
# How it was run: as §1
# [4] = test system: Lolium perenne (LOLPE); assay: as above
# How it was run: as §1
# [5] = test system: Setaria faberi (SETFA); assay: as above
# How it was run: as §1
# [6] = test system: Setaria faberi (SETFA); assay: Post-emergence herbicidal glasshouse test, percentage damage
# How it was run: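 Percentage damage was scored 13 days after treatment on a five-point scale (1=0-19% to 5=80-100%). Treatments were post-emergence sprays on 8-day-old wheat, barley and SETFA plants in a glasshouse (24/16 °C day/night, 14 h light, 65% humidity), using acetone/water 50:50 with 0.5% Tween 20 at the stated rates. Wheat additionally received cloquintocet-mexyl safener at 50 g/ha.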
# [7] = test system: Alopecurus myosuroides (ALOMY); assay: as above
# How it was run: as §1
# [8] = test system: Avena fatua (AVEFA); assay: as above
# How it was run: as §1
# [9] = test system: Echinochloa crus-galli (ECHCG); assay: as above
# How it was run: as §1
# [10] = test system: Lolium perenne (LOLPE); assay: as above
# How it was run: as §1
SMILES,ALOMY PRE percentage damage (five point scale) [1],AVEFA PRE percentage damage (five point scale) [2],ECHCG PRE percentage damage (five point scale) [3],LOLPE PRE percentage damage (five point scale) [4],SETFA PRE percentage damage (five point scale) [5],SETFA POST percentage damage (five point scale) [6],ALOMY POST percentage damage (five point scale) [7],AVEFA POST percentage damage (five point scale) [8],ECHCG POST percentage damage (five point scale) [9],LOLPE POST percentage damage (five point scale) [10]
CC#Cc1cc(C)c(C2C(=O)CC3(CCN(C(=O)[C@@H](C)O)CC3)CC2=O)c(C)c1 [Compound A156],5 (5=80-100%),5 (5=80-100%),5 (5=80-100%),5 (5=80-100%),5 (5=80-100%),5 (5=80-100%),5 (5=80-100%),5 (5=80-100%),5 (5=80-100%),5 (5=80-100%)
CC#Cc1cc(C)c(C2C(=O)CC3(CCN(C(=O)c4ccc(C(F)(F)F)cn4)CC3)CC2=O)c(C)c1 [Compound A89],5 (5=80-100%),5 (5=80-100%),5 (5=80-100%),5 (5=80-100%),5 (5=80-100%),5 (5=80-100%),5 (5=80-100%),5 (5=80-100%),5 (5=80-100%),5 (5=80-100%)
CC#Cc1cc(C)c(C2C(=O)CC3(CCN(C(=O)COC(C)(C)C)CC3)CC2=O)c(C)c1 [Compound A185],5 (5=80-100%),4 (4=60-79%),5 (5=80-100%),5 (5=80-100%),5 (5=80-100%),5 (5=80-100%),5 (5=80-100%),5 (5=80-100%),5 (5=80-100%),5 (5=80-100%)
CC#Cc1cc(C)c(C2C(=O)CC3(CCN(C(=O)COCCC)CC3)CC2=O)c(C)c1 [Compound A186],5 (5=80-100%),5 (5=80-100%),5 (5=80-100%),5 (5=80-100%),5 (5=80-100%),5 (5=80-100%),5 (5=80-100%),5 (5=80-100%),5 (5=80-100%),5 (5=80-100%)
CC#Cc1cc(C)c(C2C(=O)CC3(CCN(C(=O)[C@H](C)OC)CC3)CC2=O)c(C)c1 [Compound A153],5 (5=80-100%),5 (5=80-100%),5 (5=80-100%),5 (5=80-100%),5 (5=80-100%),5 (5=80-100%),5 (5=80-100%),5 (5=80-100%),5 (5=80-100%),5 (5=80-100%)
CC#Cc1cc(C)c(C2C(=O)CC3(CCN(C(=O)N(C)C(=O)C(C)(C)C)CC3)CC2=O)c(C)c1 [Compound A165],4 (4=60-79%),4 (4=60-79%),5 (5=80-100%),4 (4=60-79%),5 (5=80-100%),5 (5=80-100%),5 (5=80-100%),5 (5=80-100%),5 (5=80-100%),5 (5=80-100%)
CC#Cc1cc(C)c(C2=C(OC(=O)OC)CC3(CCN(C(=O)NC4CC4)CC3)CC2=O)c(C)c1 [Compound P15],5 (5=80-100%),5 (5=80-100%),5 (5=80-100%),5 (5=80-100%),5 (5=80-100%),5 (5=80-100%),5 (5=80-100%),5 (5=80-100%),5 (5=80-100%),5 (5=80-100%)
CC#Cc1cc(C)c(C2C(=O)CC3(CCN(C(=O)C4=COCCO4)CC3)CC2=O)c(C)c1 [Compound A170],4 (4=60-79%),2 (2=20-39%),3 (3=40-59%),4 (4=60-79%),4 (4=60-79%),5 (5=80-100%),5 (5=80-100%),5 (5=80-100%),5 (5=80-100%),5 (5=80-100%)
CC#Cc1cc(C)c(C2=C(OC(=O)c3ccccn3)CC3(CCN(C(=O)c4ccccn4)CC3)CC2=O)c(C)c1 [Compound P25],5 (5=80-100%),5 (5=80-100%),5 (5=80-100%),5 (5=80-100%),5 (5=80-100%),5 (5=80-100%),5 (5=80-100%),5 (5=80-100%),5 (5=80-100%),5 (5=80-100%)
CC#Cc1cc(C)c(C2=C(OC(=O)c3ccncc3)CC3(CCN(C(=O)c4ccncc4)CC3)CC2=O)c(C)c1 [Compound P4],5 (5=80-100%),4 (4=60-79%),5 (5=80-100%),5 (5=80-100%),5 (5=80-100%),5 (5=80-100%),5 (5=80-100%),5 (5=80-100%),5 (5=80-100%),5 (5=80-100%)
CC#Cc1cc(C)c(C2=C(OC(=O)OC)CC3(CCN(C(=O)COC)CC3)CC2=O)c(C)c1 [Compound P19],5 (5=80-100%),5 (5=80-100%),5 (5=80-100%),5 (5=80-100%),5 (5=80-100%),5 (5=80-100%),5 (5=80-100%),5 (5=80-100%),5 (5=80-100%),5 (5=80-100%)
CC#Cc1cc(C)c(C2C(=O)CC3(CCN(C(=O)CCc4ccn(C)n4)CC3)CC2=O)c(C)c1 [Compound A183],4 (4=60-79%),4 (4=60-79%),5 (5=80-100%),5 (5=80-100%),5 (5=80-100%),5 (5=80-100%),5 (5=80-100%),5 (5=80-100%),5 (5=80-100%),5 (5=80-100%)
CC#Cc1cc(C)c(C2=C(OC(=O)OC)CC3(CCN(C(=O)NOC)CC3)CC2=O)c(C)c1 [Compound P14],5 (5=80-100%),5 (5=80-100%),5 (5=80-100%),5 (5=80-100%),5 (5=80-100%),5 (5=80-100%),5 (5=80-100%),5 (5=80-100%),5 (5=80-100%),5 (5=80-100%)
CC#Cc1cc(C)c(C2C(=O)CC3(CCN(C(=O)NC(=O)c4ccccc4)CC3)CC2=O)c(C)c1 [Compound A166],5 (5=80-100%),4 (4=60-79%),4 (4=60-79%),5 (5=80-100%),5 (5=80-100%),5 (5=80-100%),5 (5=80-100%),5 (5=80-100%),5 (5=80-100%),5 (5=80-100%)
